Measured values: US20240116900A1, “NEW CRYSTALLINE FORMS OF A KRAS G12C INHIBITOR COMPOUND” (NOVARTIS AG, priority 2020, published 2024)
Like-named read-outs stand apart in the source and are kept apart here.

Key:
[1] = Water sorption and desorption isotherms by Dynamic Vapor Sorption (DVS); format: physicochemical; details: for Change In Mass (%) - ref, Desorption / Change In Mass (%) - ref, Sorption / hygroscopicity: 25° C.; for Change In Mass (%) - ref, Desorption / Change In Mass (%) - ref, Sorption: 40-0-95-0-40 (% RH); for hygroscopicity: 0 to 95% RH
Experimental: Water sorption and desorption isotherms were recorded at 25° C., 40° C. or 60° C. using a Dynamic Vapor Sorption (DVS) instrument as follows. The cycle used was as follows: 40-0-95-0-40 (% RH).

[2] = XRPD upon variation of humidity and temperature; format: physicochemical
[3] = Bulk stability studies (XRPD, HPLC degradation products); details: 1 week 50° C., 75% RH
Experimental: The stability of the crystalline form was investigated as follows. Bulk samples were analysed, e.g. by HPLC and/or XRPD after being exposed to various temperatures and residual humidities.

[4] = Granulation simulation experiments (XRPD after wetting and grinding); format: physicochemical
Experimental: Granulating solvent was added drop wise to the solid form being tested until the solid form was wetted sufficiently. The wet substance was ground manually. The solid form was evaluated for degree of crystallinity or form change by e.g., XRPD analysis and/or DSC analysis. Granulating solvents were water, pH 4.7, 50 mM acetate buffer, and pH 6.8, 50 mM phosphate buffer.

| SMILES | Change In Mass (%) - ref, Desorption ([1]; Cycle 1, target RH 0.0%) [%] | Change In Mass (%) - ref, Sorption ([1]; Cycle 1, target RH 0.0%) [%] | Change In Mass (%) - ref, Desorption ([1]; Cycle 1, target RH 10.0%) [%] | Change In Mass (%) - ref, Sorption ([1]; Cycle 1, target RH 10.0%) [%] | Change In Mass (%) - ref, Desorption ([1]; Cycle 1, target RH 20.0%) [%] | Change In Mass (%) - ref, Sorption ([1]; Cycle 1, target RH 20.0%) [%] | Change In Mass (%) - ref, Desorption ([1]; Cycle 1, target RH 30.0%) [%] | Change In Mass (%) - ref, Sorption ([1]; Cycle 1, target RH 30.0%) [%] | Change In Mass (%) - ref, Desorption ([1]; Cycle 1, target RH 40.0%) [%] | Change In Mass (%) - ref, Sorption ([1]; Cycle 1, target RH 40.0%) [%] | Change In Mass (%) - ref, Sorption ([1]; Cycle 1, target RH 50.0%) [%] | Change In Mass (%) - ref, Sorption ([1]; Cycle 1, target RH 60.0%) [%] | Change In Mass (%) - ref, Sorption ([1]; Cycle 1, target RH 70.0%) [%] | Change In Mass (%) - ref, Sorption ([1]; Cycle 1, target RH 80.0%) [%] | Change In Mass (%) - ref, Sorption ([1]; Cycle 1, target RH 90.0%) [%] | Change In Mass (%) - ref, Sorption ([1]; Cycle 1, target RH […]) [%] | Change In Mass (%) - ref, Desorption ([1]; Cycle 2, target RH 0.0%) [%] | Change In Mass (%) - ref, Sorption ([1]; Cycle 2, target RH 0.0%) [%] | Change In Mass (%) - ref, Desorption ([1]; Cycle 2, target RH 10.0%) [%] | Change In Mass (%) - ref, Sorption ([1]; Cycle 2, target RH 10.0%) [%] | other results |
| --- | --- | --- | --- | --- | --- | --- | --- | --- | --- | --- | --- | --- | --- | --- | --- | --- | --- | --- | --- | --- | --- |
| C=CC(=O)N1CC2(CC(n3nc(-c4ccc5c(cnn5C)c4)c(-c4c(Cl)c(C)cc5[nH]ncc45)c3C)C2)C1.O.O.O.O [Hydrate HB] | 0.00 | 0.00 | 1.87 | 0.56 | 2.62 | 2.03 | 12.26 | 2.51 | 12.73 | 2.81 | 3.17 | 3.69 | 5.09 | 10.34 | 12.94 | 13.35 | −0.09 | −0.09 | 1.74 | 0.47 | maximum water uptake ([1]; 25° C. and up to 95% RH): about 13%; Change In Mass (%) - ref, Desorption ([1]; Cycle 2, target RH 20.0%): 2.37%; Change In Mass (%) - ref, Sorption ([1]; Cycle 2, target RH 20.0%): 1.88%; Change In Mass (%) - ref, Desorption ([1]; Cycle 2, target RH 30.0%): 11.38%; Change In Mass (%) - ref, Sorption ([1]; Cycle 2, target RH 30.0%): 2.32%; Change In Mass (%) - ref, Desorption ([1]; Cycle 2, target RH 40.0%): 11.87%; Change In Mass (%) - ref, Sorption ([1]; Cycle 2, target RH 40.0%): 2.69%; Change In Mass (%) - ref, Desorption ([1]; Cycle 2, target RH 50.0%): 12.24%; Change In Mass (%) - ref, Desorption ([1]; Cycle 2, target RH 60.0%): 12.53%; Change In Mass (%) - ref, Desorption ([1]; Cycle 2, target RH 70.0%): 12.78%; Change In Mass (%) - ref, Desorption ([1]; Cycle 2, target RH 80.0%): 13.02%; Change In Mass (%) - ref, Desorption ([1]; Cycle 2, target RH 90.0%): 13.24%; Change In Mass (%) - ref, Desorption ([1]; Cycle 2, target RH […]): 13.35%; form change at 0% RH ([2]; 0% RH): completely dehydrates; form change on heating ([2]; further heating to 70° C. and above): converts to an anhydrous form, Modification B; XRPD pattern on heating ([2]; heated from 25° C. to 40° C.): changes to hydrate HC; % Degradation Products, as measured by HPLC ([3]; area-% products): 3.97% |
| C=CC(=O)N1CC2(CC(n3nc(-c4ccc5c(cnn5C)c4)c(-c4c(Cl)c(C)cc5[nH]ncc45)c3C)C2)C1 [Hydrate HA] | 0.002 | 0.002 | 2.638 | 2.390 | 3.008 | 2.782 | 3.381 | 3.184 | 3.838 | 3.660 | 4.295 | 5.234 | 6.244 | 7.007 | 7.633 | 7.973 | 0.000 | 0.000 | 2.659 | 2.388 | water content corresponding to hosted water molecules ([1]; 2.5 molecules of water): 7.9%; hygroscopicity [1]: hygroscopic; water absorbed ([1]; 80% RH at 25° C.): up to 7.0%; Change In Mass (%) - ref, Desorption ([1]; Cycle 2, target RH 20.0%): 3.102%; Change In Mass (%) - ref, Sorption ([1]; Cycle 2, target RH 20.0%): 2.773%; Change In Mass (%) - ref, Desorption ([1]; Cycle 2, target RH 30.0%): 3.573%; Change In Mass (%) - ref, Sorption ([1]; Cycle 2, target RH 30.0%): 3.163%; Change In Mass (%) - ref, Desorption ([1]; Cycle 2, target RH 40.0%): 4.126%; Change In Mass (%) - ref, Sorption ([1]; Cycle 2, target RH 40.0%): 3.624%; Change In Mass (%) - ref, Desorption ([1]; Cycle 2, target RH 50.0%): 5.062%; Change In Mass (%) - ref, Desorption ([1]; Cycle 2, target RH 60.0%): 6.040%; Change In Mass (%) - ref, Desorption ([1]; Cycle 2, target RH 70.0%): 6.816%; Change In Mass (%) - ref, Desorption ([1]; Cycle 2, target RH 80.0%): 7.346%; Change In Mass (%) - ref, Desorption ([1]; Cycle 2, target RH 90.0%): 7.766%; Change In Mass (%) - ref, Desorption ([1]; Cycle 2, target RH […]): 7.973%; molecules of water hosted ([1]; depending on the relative humidity): up to 2.5 molecules; XRPD after granulation simulation ([4]; solvent for granulation: Water): no form change; form change on heating ([2]; at 80° C.): converts into an anhydrous form, namely Modification A; XRPD pattern on heating ([2]; heated at ambient relative humidity from 25° C. to 65° C.): remains unchanged; form change after equilibration (XRPD) (50° C. and 70° C.): formation of several solvates in cyclohexane, ethanol, isopropanol or 1,2-propanediol |
| C=CC(=O)N1CC2(CC(n3nc(-c4ccc5c(cnn5C)c4)c(-c4c(Cl)c(C)cc5[nH]ncc45)c3C)C2)C1 [Modification C] | −0.0018 | −0.0018 | 0.0522 | 0.0639 | 0.0984 | 0.1010 | 0.1282 | 0.1365 | 0.1658 | 0.1764 | 0.2099 | 0.2719 | 0.2954 | 0.3628 | 0.4475 | 0.5450 | −0.0143 | −0.0143 | 0.0532 | 0.0434 | hygroscopicity [1]: non hygroscopic; Change In Mass (%) - ref, Desorption ([1]; Cycle 2, target RH 20.0%): 0.1019%; Change In Mass (%) - ref, Sorption ([1]; Cycle 2, target RH 20.0%): 0.0893%; Change In Mass (%) - ref, Desorption ([1]; Cycle 2, target RH 30.0%): 0.1500%; Change In Mass (%) - ref, Desorption ([1]; Cycle 2, target RH 40.0%): 0.2014%; Change In Mass (%) - ref, Sorption ([1]; Cycle 2, target RH 40.0%): 0.1725%; Change In Mass (%) - ref, Desorption ([1]; Cycle 2, target RH 50.0%): 0.2678%; Change In Mass (%) - ref, Desorption ([1]; Cycle 2, target RH 60.0%): 0.3212%; Change In Mass (%) - ref, Desorption ([1]; Cycle 2, target RH 70.0%): 0.3789%; Change In Mass (%) - ref, Desorption ([1]; Cycle 2, target RH 80.0%): 0.4299%; Change In Mass (%) - ref, Desorption ([1]; Cycle 2, target RH 90.0%): 0.5046%; Change In Mass (%) - ref, Desorption ([1]; Cycle 2, target RH […]): 0.5450%; form change after granulation simulation ([4]; aqueous media as the solvent for granulation): no form change; form change after equilibration (in ethanol, and methanol): converts to Hydrate HA; form change after equilibration (in isopropanol): converts into a mixture of HA and the isopropanol solvate; XRPD after bulk storage [3]: No change |
